{"source": "PubChem BioAssay AID2060900", "about": "(Molecular Pharmacology Branch, DTP, NCI, 2025)", "system": "521955-158-R2-J5-PDC complex spheroids, viability", "assay": "Anticancer human tumor 521955-158-R2-J5-PDC patient-derived pancreatic carcinoma cell line growth inhibition [RAS]", "settings": "for IC50: curve of first compound; for viability, T/C: stronger effect = lower value", "summary_of_the_method": "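Multi-cell-type spheroids: tumor cells plus HUVEC endothelial cells and mesenchymal stem cells. RAS-pathway inhibitors were combined with targeted agents, each dosed in half-log steps down from clinical Cmax, or from 10 microM when Cmax was unknown.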", "key": {"[1]": {"settings": "second compound 0.000949 µM, first compound 0.0316 µM"}, "[2]": {"settings": "second compound 0.000949 µM, first compound 0.1 µM"}, "[3]": {"settings": "second compound 0.000949 µM, first compound 0.316 µM"}, "[4]": {"settings": "second compound 0.000949 µM, first compound 1 µM"}, "[5]": {"settings": "second compound 0.000949 µM, first compound 3.16 µM"}, "[6]": {"settings": "second compound 0.000949 µM, first compound 10 µM"}, "[7]": {"settings": "second compound 0.003 µM, first compound 0.0316 µM"}, "[8]": {"settings": "second compound 0.003 µM, first compound 0.1 µM"}, "[9]": {"settings": "second compound 0.003 µM, first compound 0.316 µM"}, "[10]": {"settings": "second compound 0.003 µM, first compound 1 µM"}, "[11]": {"settings": "second compound 0.003 µM, first compound 3.16 µM"}, "[12]": {"settings": "second compound 0.003 µM, first compound 10 µM"}, "[13]": {"settings": "second compound 0.00949 µM, first compound 0.0316 µM"}, "[14]": {"settings": "second compound 0.00949 µM, first compound 0.1 µM"}, "[15]": {"settings": "second compound 0.00949 µM, first compound 0.316 µM"}, "[16]": {"settings": "second compound 0.00949 µM, first compound 1 µM"}, "[17]": {"settings": "second compound 0.00949 µM, first compound 3.16 µM"}, "[18]": {"settings": "second compound 0.00949 µM, first compound 10 µM"}, "[19]": {"settings": "second compound 0.03 µM, first compound 0.0316 µM"}, "[20]": {"settings": "second compound 0.03 µM, first compound 0.1 µM"}, "[21]": {"settings": "second compound 0.03 µM, first compound 0.316 µM"}, "[22]": {"settings": "second compound 0.03 µM, first compound 1 µM"}, "[23]": {"settings": "second compound 0.03 µM, first compound 3.16 µM"}, "[24]": {"settings": "second compound 0.03 µM, first compound 10 µM"}, "[25]": {"settings": "second compound 0.0949 µM, first compound 0.0316 µM"}, "[26]": {"settings": "second compound 0.0949 µM, first compound 0.1 µM"}, "[27]": {"settings": "second compound 0.0949 µM, first compound 0.316 µM"}, "[28]": {"settings": "second compound 0.0949 µM, first compound 1 µM"}, "[29]": {"settings": "second compound 0.0949 µM, first compound 3.16 µM"}, "[30]": {"settings": "second compound 0.0949 µM, first compound 10 µM"}, "[31]": {"settings": "second compound 0.3 µM, first compound 0.0316 µM"}, "[32]": {"settings": "second compound 0.3 µM, first compound 0.1 µM"}, "[33]": {"settings": "second compound 0.3 µM, first compound 0.316 µM"}, "[34]": {"settings": "second compound 0.3 µM, first compound 1 µM"}, "[35]": {"settings": "second compound 0.3 µM, first compound 3.16 µM"}, "[36]": {"settings": "second compound 0.3 µM, first compound 10 µM"}}, "data": [{"compound": "CC1(O)CCCC1n1c(=O)c(C(F)F)cc2cnc(NC3CCN(S(C)(=O)=O)CC3)nc21", "note": "(centres undefined) + CCn1c(-c2cccnc2C(C)OC)c2c3cc(ccc31)N1CCOC(CC(NC(=O)C(C(C)C)N(C)C(=O)C3(F)CCN(C(=O)C#CC(C)(C)N(C)C)CC3)C(=O)N3CCCC(N3)C(=O)OCC(C)(C)C2)C1;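 also: compound exposure lasted seven days before the viability read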;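 as to viability, T/C: spheroids also contain HUVEC endothelial cells and mesenchymal stem cells as stroma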", "values": [{"measurement": "IC50", "setting": "second compound 0.000949 µM", "value": 4900, "unit": "nM"}, {"measurement": "IC50", "setting": "second compound 0.003 µM", "value": 5090, "unit": "nM"}, {"measurement": "IC50", "setting": "second compound 0.00949 µM", "value": 4910, "unit": "nM"}, {"measurement": "IC50", "setting": "second compound 0.03 µM", "value": 4990, "unit": "nM"}, {"measurement": "IC50", "setting": "second compound 0.0949 µM", "value": 4430, "unit": "nM"}, {"measurement": "IC50", "setting": "second compound 0.3 µM", "value": 3760, "unit": "nM"}, {"measurement": "viability, T/C", "setting": "[1]", "value": 68.5, "unit": "%"}, {"measurement": "viability, T/C", "setting": "[2]", "value": 66.1, "unit": "%"}, {"measurement": "viability, T/C", "setting": "[3]", "value": 61.6, "unit": "%"}, {"measurement": "viability, T/C", "setting": "[4]", "value": 59.4, "unit": "%"}, {"measurement": "viability, T/C", "setting": "[5]", "value": 103, "unit": "%"}, {"measurement": "viability, T/C", "setting": "[6]", "value": 14.8, "unit": "%"}, {"measurement": "viability, T/C", "setting": "[7]", "value": 89.5, "unit": "%"}, {"measurement": "viability, T/C", "setting": "[8]", "value": 67.8, "unit": "%"}, {"measurement": "viability, T/C", "setting": "[9]", "value": 49.5, "unit": "%"}, {"measurement": "viability, T/C", "setting": "[10]", "value": 82.7, "unit": "%"}, {"measurement": "viability, T/C", "setting": "[11]", "value": 89.2, "unit": "%"}, {"measurement": "viability, T/C", "setting": "[12]", "value": 13.5, "unit": "%"}, {"measurement": "viability, T/C", "setting": "[13]", "value": 88.1, "unit": "%"}, {"measurement": "viability, T/C", "setting": "[14]", "value": 71.1, "unit": "%"}, {"measurement": "viability, T/C", "setting": "[15]", "value": 60.2, "unit": "%"}, {"measurement": "viability, T/C", "setting": "[16]", "value": 62.1, "unit": "%"}, {"measurement": "viability, T/C", "setting": "[17]", "value": 93.5, "unit": "%"}, {"measurement": "viability, T/C", "setting": "[18]", "value": 9.48, "unit": "%"}, {"measurement": "viability, T/C", "setting": "[19]", "value": 89.7, "unit": "%"}, {"measurement": "viability, T/C", "setting": "[20]", "value": 77.1, "unit": "%"}, {"measurement": "viability, T/C", "setting": "[21]", "value": 47.7, "unit": "%"}, {"measurement": "viability, T/C", "setting": "[22]", "value": 76.1, "unit": "%"}, {"measurement": "viability, T/C", "setting": "[23]", "value": 78.9, "unit": "%"}, {"measurement": "viability, T/C", "setting": "[24]", "value": 13.6, "unit": "%"}, {"measurement": "viability, T/C", "setting": "[25]", "value": 67.6, "unit": "%"}, {"measurement": "viability, T/C", "setting": "[26]", "value": 61.1, "unit": "%"}, {"measurement": "viability, T/C", "setting": "[27]", "value": 47.3, "unit": "%"}, {"measurement": "viability, T/C", "setting": "[28]", "value": 63.1, "unit": "%"}, {"measurement": "viability, T/C", "setting": "[29]", "value": 90.5, "unit": "%"}, {"measurement": "viability, T/C", "setting": "[30]", "value": 11.6, "unit": "%"}, {"measurement": "viability, T/C", "setting": "[31]", "value": 60.8, "unit": "%"}, {"measurement": "viability, T/C", "setting": "[32]", "value": 37.9, "unit": "%"}, {"measurement": "viability, T/C", "setting": "[33]", "value": 45.5, "unit": "%"}, {"measurement": "viability, T/C", "setting": "[34]", "value": 58, "unit": "%"}, {"measurement": "viability, T/C", "setting": "[35]", "value": 88.2, "unit": "%"}, {"measurement": "viability, T/C", "setting": "[36]", "value": 9.67, "unit": "%"}]}, {"compound": "CCC(CC)c1cc(NC2CCC(N)C2)n2nccc2n1", "note": "(centres undefined) + CCn1c(-c2cccnc2C(C)OC)c2c3cc(ccc31)N1CCOC(CC(NC(=O)C(C(C)C)N(C)C(=O)C3(F)CCN(C(=O)C#CC(C)(C)N(C)C)CC3)C(=O)N3CCCC(N3)C(=O)OCC(C)(C)C2)C1", "values": [{"measurement": "IC50", "setting": "second compound 0.000949 µM", "value": 1900, "unit": "nM"}, {"measurement": "IC50", "setting": "second compound 0.003 µM", "value": 1910, "unit": "nM"}, {"measurement": "IC50", "setting": "second compound 0.00949 µM", "value": 1960, "unit": "nM"}, {"measurement": "IC50", "setting": "second compound 0.03 µM", "value": 1930, "unit": "nM"}, {"measurement": "IC50", "setting": "second compound 0.0949 µM", "value": 1730, "unit": "nM"}, {"measurement": "IC50", "setting": "second compound 0.3 µM", "value": 1700, "unit": "nM"}, {"measurement": "viability, T/C", "setting": "[1]", "value": 93.9, "unit": "%"}, {"measurement": "viability, T/C", "setting": "[2]", "value": 92.6, "unit": "%"}, {"measurement": "viability, T/C", "setting": "[3]", "value": 104, "unit": "%"}, {"measurement": "viability, T/C", "setting": "[4]", "value": 122, "unit": "%"}, {"measurement": "viability, T/C", "setting": "[5]", "value": 6.03, "unit": "%"}, {"measurement": "viability, T/C", "setting": "[6]", "value": 9.22, "unit": "%"}, {"measurement": "viability, T/C", "setting": "[7]", "value": 94.6, "unit": "%"}, {"measurement": "viability, T/C", "setting": "[8]", "value": 108, "unit": "%"}, {"measurement": "viability, T/C", "setting": "[9]", "value": 106, "unit": "%"}, {"measurement": "viability, T/C", "setting": "[10]", "value": 116, "unit": "%"}, {"measurement": "viability, T/C", "setting": "[11]", "value": 5.99, "unit": "%"}, {"measurement": "viability, T/C", "setting": "[12]", "value": 6.76, "unit": "%"}, {"measurement": "viability, T/C", "setting": "[13]", "value": 113, "unit": "%"}, {"measurement": "viability, T/C", "setting": "[14]", "value": 97.7, "unit": "%"}, {"measurement": "viability, T/C", "setting": "[15]", "value": 116, "unit": "%"}, {"measurement": "viability, T/C", "setting": "[16]", "value": 117, "unit": "%"}, {"measurement": "viability, T/C", "setting": "[17]", "value": 7.29, "unit": "%"}, {"measurement": "viability, T/C", "setting": "[18]", "value": 6.73, "unit": "%"}, {"measurement": "viability, T/C", "setting": "[19]", "value": 99.2, "unit": "%"}, {"measurement": "viability, T/C", "setting": "[20]", "value": 101, "unit": "%"}, {"measurement": "viability, T/C", "setting": "[21]", "value": 105, "unit": "%"}, {"measurement": "viability, T/C", "setting": "[22]", "value": 117, "unit": "%"}, {"measurement": "viability, T/C", "setting": "[23]", "value": 8.41, "unit": "%"}, {"measurement": "viability, T/C", "setting": "[24]", "value": 5.64, "unit": "%"}, {"measurement": "viability, T/C", "setting": "[25]", "value": 83.1, "unit": "%"}, {"measurement": "viability, T/C", "setting": "[26]", "value": 75.6, "unit": "%"}, {"measurement": "viability, T/C", "setting": "[27]", "value": 97.4, "unit": "%"}, {"measurement": "viability, T/C", "setting": "[28]", "value": 100, "unit": "%"}, {"measurement": "viability, T/C", "setting": "[29]", "value": 6.48, "unit": "%"}, {"measurement": "viability, T/C", "setting": "[30]", "value": 6.71, "unit": "%"}, {"measurement": "viability, T/C", "setting": "[31]", "value": 84.9, "unit": "%"}, {"measurement": "viability, T/C", "setting": "[32]", "value": 75.4, "unit": "%"}, {"measurement": "viability, T/C", "setting": "[33]", "value": 88.1, "unit": "%"}, {"measurement": "viability, T/C", "setting": "[34]", "value": 88.6, "unit": "%"}, {"measurement": "viability, T/C", "setting": "[35]", "value": 9.96, "unit": "%"}, {"measurement": "viability, T/C", "setting": "[36]", "value": 5.87, "unit": "%"}]}]}
